Reference: ChEMBL document CHEMBL5532720, “A Potent Solution for Tumor Growth and Angiogenesis Suppression via an ELR+CXCL-CXCR1/2 Pathway Inhibitor” (ACS Med Chem Lett, 2024)
In brackets after ≈: the same amount, converted by molar mass. Activity calls are given as the source filed them. No cut-off for these calls is given here.

How the values were obtained:
RCC4 = experiment: Antiproliferative activity against human RCC4 cells incubated for 48 hrs by XTT assay; assay type: functional, cell-based; conditions: RCC4, 48 h
786-0 [1] = experiment: Antiproliferative activity against human 786-0 cells incubated for 48 hrs by XTT assay; assay type: functional, cell-based; conditions: 786-0, 48 h
A498 [2] = experiment: Inhibition of CXCL8-induced cell migration in human A498 cells at 0.5 uM incubated for 24 hrs by crystal violet staining based analysis relative to control; assay type: functional
A498 [3] = experiment: Inhibition of CXCL5 secretion in human A498 cells at 1 to 2.5 uM incubated for 48 hrs by ELISA; assay type: functional, cell-based; conditions: dose 1-2.5 µM
A498 [4] = experiment: Effect on VEGFA production in human A498 cells at 1 to 2.5 uM incubated for 48 hrs by ELISA; assay type: functional, cell-based; conditions: dose 1-2.5 µM
[5] = molecular target: Aurora kinase B (Homo sapiens) (UniProt Q96GD4); experiment: Inhibition of AURKB (unknown origin) at 10 uM in presence of ATP at Km concentration
[6] = molecular target: Tyrosine-protein kinase receptor UFO (Homo sapiens) (UniProt P30530); experiment: Inhibition of AXL (unknown origin) at 10 uM in presence of ATP at Km concentration
[7] = molecular target: Calcium/calmodulin-dependent protein kinase type II subunit beta (Homo sapiens) (UniProt Q13554); experiment: Inhibition of CAMK2B (unknown origin) at 10 uM in presence of ATP at Km concentration
[8] = molecular target: Casein kinase I isoform gamma-3 (Homo sapiens) (UniProt Q9Y6M4); experiment: Inhibition of CSNK1G3 (unknown origin) at 10 uM in presence of ATP at Km concentration
[9] = molecular target: Glycogen synthase kinase-3 beta (Homo sapiens) (UniProt P49841); experiment: Inhibition of GSK3B (unknown origin) at 10 uM in presence of ATP at Km concentration
[10] = molecular target: Inhibitor of nuclear factor kappa-B kinase subunit beta (Homo sapiens) (UniProt O14920); experiment: Inhibition of IKBKB (unknown origin) at 10 uM in presence of ATP at Km concentration
[11] = molecular target: Mitogen-activated protein kinase kinase kinase 3 (Homo sapiens) (UniProt Q99759); experiment: Inhibition of MAP3K3 (unknown origin) at 10 uM in presence of ATP at Km concentration
[12] = molecular target: Mitogen-activated protein kinase kinase kinase kinase 2 (Homo sapiens) (UniProt Q12851); experiment: Inhibition of MAP4K2 (unknown origin) at 10 uM in presence of ATP at Km concentration
[13] = molecular target: Mitogen-activated protein kinase kinase kinase kinase 3 (Homo sapiens) (UniProt Q8IVH8); experiment: Inhibition of MAP4K3 (unknown origin) at 10 uM in presence of ATP at Km concentration
[14] = molecular target: Mitogen-activated protein kinase 15 (Homo sapiens) (UniProt Q8TD08); experiment: Inhibition of MAPK15 (unknown origin) at 10 uM in presence of ATP at Km concentration
[15] = molecular target: Mitogen-activated protein kinase 9 (Homo sapiens) (UniProt P45984); experiment: Inhibition of MAPK9 (unknown origin) at 10 uM in presence of ATP at Km concentration
[16] = molecular target: Hepatocyte growth factor receptor (Homo sapiens) (UniProt P08581); experiment: Inhibition of MET (unknown origin) at 10 uM in presence of ATP at Km concentration
[17] = molecular target: Myosin-IIIb (Homo sapiens) (UniProt Q8WXR4); experiment: Inhibition of MYO3B (unknown origin) at 10 uM in presence of ATP at Km concentration
[18] = molecular target: Serine/threonine-protein kinase PAK 4 (Homo sapiens) (UniProt O96013); experiment: Inhibition of PAK4 (unknown origin) at 10 uM in presence of ATP at Km concentration
[19] = molecular target: Inactive tyrosine-protein kinase PEAK1 (Homo sapiens) (UniProt Q9H792); experiment: Inhibition of PEAK1 (unknown origin) at 10 uM in presence of ATP at Km concentration
[20] = molecular target: cGMP-dependent protein kinase 1 (Homo sapiens) (UniProt Q13976); experiment: Inhibition of PRKG1 (unknown origin) at 10 uM in presence of ATP at Km concentration
[21] = molecular target: Serine/threonine-protein kinase TAO1 (Homo sapiens) (UniProt Q7L7X3); experiment: Inhibition of TAOK1 (unknown origin) at 10 uM in presence of ATP at Km concentration
[22] = molecular target: Angiopoietin-1 receptor (Homo sapiens) (UniProt Q02763); experiment: Inhibition of TEK (unknown origin) at 10 uM in presence of ATP at Km concentration
[23] = molecular target: Mitogen-activated protein kinase kinase kinase 20 (Homo sapiens) (UniProt Q9NYL2); experiment: Inhibition of ZAK (unknown origin) at 10 uM in presence of ATP at Km concentration
TIME = experiment: Inhibition of CXCL8-dependent cell migration in human TIME cells at 0.5 uM incubated for 24 hrs by crystal violet staining based analysis; assay type: functional
A498 [24] = experiment: Antimetastatic activity against human A498 cells labeled with vybrant DiD cell-labeling solution xenografted in zebrafish embryo at 1 uM incubated for 72 hrs by fluorescence microscopic imaging analysis; assay type: functional, cell-based
[25] = Lipophilicity, logD of compound at pH 7.4; assay type: physicochemical; conditions: buffer
[26] = Aqueous solubility of compound in water; assay type: physicochemical
[27] = Aqueous solubility of compound in SIF at pH 7.5; assay type: ADME
[28] = Protein binding in mouse plasma; assay type: ADME, cell-free; conditions: read-out: PPB (converted)
[29] = Protein binding in human plasma; assay type: ADME, cell-free; conditions: read-out: PPB (converted)
[30] = Stability in human plasma assessed as half-life; assay type: ADME, cell-free
[31] = Stability in mouse microsomes assessed as half-life; assay type: ADME, Microsome
[32] = Stability in mouse microsomes assessed as intrinsic clearance; assay type: ADME, Microsome
[33] = Stability in human hepatocytes assessed as half-life; assay type: ADME, cell-based, Hepatocyte
[34] = Stability in human hepatocytes assessed as intrinsic clearance measured per 10^6 cells; assay type: ADME, cell-based, Hepatocyte; conditions: read-out: CLH
[35] = Cmax in NOD SCID mouse at 100 mg/kg, po; assay type: ADME, organism-based; conditions: in vivo
[36] = Tmax in NOD SCID mouse at 200 mg/kg, po; assay type: ADME, organism-based; conditions: in vivo
[37] = Half-life in NOD SCID mouse at 50 mg/kg, po; assay type: ADME, organism-based; conditions: in vivo
[38] = Half-life in NOD SCID mouse at 200 mg/kg, po; assay type: ADME, organism-based; conditions: in vivo
[39] = Oral bioavailability in NOD SCID mouse at 100 mg/kg; assay type: ADME, organism-based; conditions: in vivo
786-0 [40] = experiment: Antitumor activity against human 786-0 cells xenografted in athymic nude mouse assessed as tumor growth inhibition at 100 mg/kg, po administered twice daily via gavage for 28 days relative to control; assay type: functional; conditions: 786-0, 672 h, time 28 day, read-out: TGI
[41] = Toxicity in athymic nude mouse xenografted with human 786-0 cells assessed as effect on behavior at 100 mg/kg, po administered twice daily via gavage for 28 days; assay type: organism-based; conditions: in vivo, 672 h, time 28 day
[42] = Toxicity in athymic nude mouse xenografted with human 786-0 cells assessed as effect on food consumption at 100 mg/kg, po administered twice daily via gavage for 28 days; assay type: organism-based; conditions: in vivo, 672 h, time 28 day

Sequence of Mitogen-activated protein kinase kinase kinase 3 (Homo sapiens) (Q99759 whole entry): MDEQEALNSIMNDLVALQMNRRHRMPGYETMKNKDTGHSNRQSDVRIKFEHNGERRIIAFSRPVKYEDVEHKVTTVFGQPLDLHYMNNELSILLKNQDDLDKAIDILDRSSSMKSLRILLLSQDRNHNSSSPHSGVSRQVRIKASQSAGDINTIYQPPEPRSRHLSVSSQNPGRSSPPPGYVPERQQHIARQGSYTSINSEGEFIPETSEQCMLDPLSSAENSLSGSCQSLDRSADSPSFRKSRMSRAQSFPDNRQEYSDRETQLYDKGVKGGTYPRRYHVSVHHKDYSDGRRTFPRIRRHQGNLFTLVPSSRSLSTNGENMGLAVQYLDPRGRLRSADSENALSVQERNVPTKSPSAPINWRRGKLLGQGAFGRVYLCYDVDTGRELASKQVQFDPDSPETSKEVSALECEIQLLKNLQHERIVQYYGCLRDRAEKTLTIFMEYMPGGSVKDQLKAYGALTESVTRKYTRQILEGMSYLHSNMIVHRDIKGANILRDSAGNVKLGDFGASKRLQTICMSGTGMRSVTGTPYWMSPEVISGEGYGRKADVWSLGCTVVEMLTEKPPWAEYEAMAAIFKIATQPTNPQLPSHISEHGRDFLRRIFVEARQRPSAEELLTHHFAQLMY
Sequence of Mitogen-activated protein kinase kinase kinase kinase 3 (Homo sapiens) (Q8IVH8 whole entry): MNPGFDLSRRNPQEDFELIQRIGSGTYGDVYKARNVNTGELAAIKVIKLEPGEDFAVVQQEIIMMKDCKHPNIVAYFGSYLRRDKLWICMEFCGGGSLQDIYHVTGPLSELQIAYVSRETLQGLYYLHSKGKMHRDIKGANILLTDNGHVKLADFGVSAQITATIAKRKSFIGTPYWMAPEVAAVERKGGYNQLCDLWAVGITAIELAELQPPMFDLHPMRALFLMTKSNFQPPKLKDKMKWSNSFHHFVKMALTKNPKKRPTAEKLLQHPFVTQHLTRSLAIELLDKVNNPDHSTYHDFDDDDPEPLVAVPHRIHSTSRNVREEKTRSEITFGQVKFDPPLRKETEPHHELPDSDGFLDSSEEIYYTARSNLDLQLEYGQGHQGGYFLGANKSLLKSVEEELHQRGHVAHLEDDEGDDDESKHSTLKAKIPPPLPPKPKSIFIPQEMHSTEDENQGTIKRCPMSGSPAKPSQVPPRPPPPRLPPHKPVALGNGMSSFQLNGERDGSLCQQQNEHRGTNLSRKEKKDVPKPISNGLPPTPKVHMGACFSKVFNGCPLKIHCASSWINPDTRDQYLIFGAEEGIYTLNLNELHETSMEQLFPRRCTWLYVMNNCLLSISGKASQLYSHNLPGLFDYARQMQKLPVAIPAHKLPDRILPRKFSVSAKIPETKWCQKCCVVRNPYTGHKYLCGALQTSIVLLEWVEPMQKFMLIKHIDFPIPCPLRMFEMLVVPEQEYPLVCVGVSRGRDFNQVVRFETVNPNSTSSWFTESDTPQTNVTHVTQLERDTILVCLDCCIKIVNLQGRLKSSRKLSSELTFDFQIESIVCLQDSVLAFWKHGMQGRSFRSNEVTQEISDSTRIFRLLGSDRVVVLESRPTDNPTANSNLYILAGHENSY
Sequence of cGMP-dependent protein kinase 1 (Homo sapiens) (Q13976 whole entry): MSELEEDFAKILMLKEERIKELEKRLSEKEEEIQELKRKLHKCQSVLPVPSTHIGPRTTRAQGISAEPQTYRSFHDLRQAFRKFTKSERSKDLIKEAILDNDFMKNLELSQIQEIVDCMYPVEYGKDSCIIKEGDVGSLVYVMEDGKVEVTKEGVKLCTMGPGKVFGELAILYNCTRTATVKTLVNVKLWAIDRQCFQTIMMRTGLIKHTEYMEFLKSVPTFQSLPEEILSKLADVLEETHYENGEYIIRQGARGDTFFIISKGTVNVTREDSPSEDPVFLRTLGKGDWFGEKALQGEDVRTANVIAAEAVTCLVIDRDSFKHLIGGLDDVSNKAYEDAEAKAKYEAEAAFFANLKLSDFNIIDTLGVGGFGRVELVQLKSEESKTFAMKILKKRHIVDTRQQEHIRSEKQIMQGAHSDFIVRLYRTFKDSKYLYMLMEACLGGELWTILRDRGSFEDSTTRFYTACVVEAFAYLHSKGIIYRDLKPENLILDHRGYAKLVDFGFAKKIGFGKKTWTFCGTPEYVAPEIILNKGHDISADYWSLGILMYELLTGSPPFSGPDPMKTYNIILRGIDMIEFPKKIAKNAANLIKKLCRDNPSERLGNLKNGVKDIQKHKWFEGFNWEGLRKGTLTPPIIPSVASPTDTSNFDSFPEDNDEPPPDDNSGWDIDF
Sequence of Tyrosine-protein kinase receptor UFO (Homo sapiens) (P30530 whole entry): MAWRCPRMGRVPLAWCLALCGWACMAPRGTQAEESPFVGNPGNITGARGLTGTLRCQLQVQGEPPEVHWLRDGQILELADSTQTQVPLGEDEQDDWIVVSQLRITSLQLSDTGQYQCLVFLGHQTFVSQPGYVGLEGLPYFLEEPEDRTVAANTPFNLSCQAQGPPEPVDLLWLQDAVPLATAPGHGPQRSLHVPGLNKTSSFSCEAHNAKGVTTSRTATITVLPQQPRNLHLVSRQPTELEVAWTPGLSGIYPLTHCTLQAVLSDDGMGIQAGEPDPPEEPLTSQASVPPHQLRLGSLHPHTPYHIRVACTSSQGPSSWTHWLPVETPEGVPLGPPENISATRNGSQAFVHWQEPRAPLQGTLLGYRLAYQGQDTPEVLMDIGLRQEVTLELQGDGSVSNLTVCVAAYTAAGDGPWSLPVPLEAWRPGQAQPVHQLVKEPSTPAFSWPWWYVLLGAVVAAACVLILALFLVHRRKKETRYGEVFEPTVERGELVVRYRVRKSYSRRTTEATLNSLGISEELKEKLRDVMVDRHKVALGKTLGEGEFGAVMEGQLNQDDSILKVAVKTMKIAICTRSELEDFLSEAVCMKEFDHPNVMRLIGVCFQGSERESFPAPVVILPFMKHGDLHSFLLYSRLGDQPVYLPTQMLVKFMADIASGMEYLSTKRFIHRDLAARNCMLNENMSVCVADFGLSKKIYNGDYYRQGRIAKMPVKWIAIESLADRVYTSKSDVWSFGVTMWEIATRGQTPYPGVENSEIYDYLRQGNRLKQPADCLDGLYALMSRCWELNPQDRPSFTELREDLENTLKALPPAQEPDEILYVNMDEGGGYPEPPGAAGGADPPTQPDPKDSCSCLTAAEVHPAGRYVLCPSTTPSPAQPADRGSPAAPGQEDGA
Sequence of Inhibitor of nuclear factor kappa-B kinase subunit beta (Homo sapiens) (O14920 whole entry): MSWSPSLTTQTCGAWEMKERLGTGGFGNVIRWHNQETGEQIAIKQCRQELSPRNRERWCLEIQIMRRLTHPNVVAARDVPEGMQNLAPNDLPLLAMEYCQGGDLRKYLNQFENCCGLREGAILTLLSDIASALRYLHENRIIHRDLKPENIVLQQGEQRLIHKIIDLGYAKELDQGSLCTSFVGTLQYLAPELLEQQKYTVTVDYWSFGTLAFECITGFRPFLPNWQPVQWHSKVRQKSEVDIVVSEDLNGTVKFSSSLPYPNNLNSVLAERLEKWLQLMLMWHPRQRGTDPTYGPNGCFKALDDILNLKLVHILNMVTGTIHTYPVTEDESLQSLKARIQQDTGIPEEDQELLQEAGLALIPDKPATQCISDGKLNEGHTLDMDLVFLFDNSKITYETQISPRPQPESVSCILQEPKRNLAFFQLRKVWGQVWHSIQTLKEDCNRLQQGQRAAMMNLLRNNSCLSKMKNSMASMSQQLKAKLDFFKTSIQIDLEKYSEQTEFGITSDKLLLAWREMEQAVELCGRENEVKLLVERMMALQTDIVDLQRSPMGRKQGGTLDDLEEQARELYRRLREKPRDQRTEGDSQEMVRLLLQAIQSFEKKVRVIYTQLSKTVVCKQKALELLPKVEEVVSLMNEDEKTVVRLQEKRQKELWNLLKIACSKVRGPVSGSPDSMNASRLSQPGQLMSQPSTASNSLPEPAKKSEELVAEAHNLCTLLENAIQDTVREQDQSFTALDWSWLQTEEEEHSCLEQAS
Sequence of Glycogen synthase kinase-3 beta (Homo sapiens) (P49841 whole entry, looked up): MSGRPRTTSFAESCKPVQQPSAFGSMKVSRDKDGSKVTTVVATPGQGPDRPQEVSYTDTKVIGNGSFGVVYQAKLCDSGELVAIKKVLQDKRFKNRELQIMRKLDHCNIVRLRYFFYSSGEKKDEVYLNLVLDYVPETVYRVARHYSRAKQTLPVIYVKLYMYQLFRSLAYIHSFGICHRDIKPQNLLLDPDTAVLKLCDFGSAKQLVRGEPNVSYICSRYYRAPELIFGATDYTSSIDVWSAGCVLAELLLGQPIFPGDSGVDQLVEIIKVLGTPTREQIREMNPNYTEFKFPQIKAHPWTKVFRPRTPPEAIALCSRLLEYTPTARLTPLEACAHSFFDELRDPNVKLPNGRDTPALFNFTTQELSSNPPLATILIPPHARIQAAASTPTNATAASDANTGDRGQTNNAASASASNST
Sequence of Calcium/calmodulin-dependent protein kinase type II subunit beta (Homo sapiens) (Q13554 whole entry, canonical isoform): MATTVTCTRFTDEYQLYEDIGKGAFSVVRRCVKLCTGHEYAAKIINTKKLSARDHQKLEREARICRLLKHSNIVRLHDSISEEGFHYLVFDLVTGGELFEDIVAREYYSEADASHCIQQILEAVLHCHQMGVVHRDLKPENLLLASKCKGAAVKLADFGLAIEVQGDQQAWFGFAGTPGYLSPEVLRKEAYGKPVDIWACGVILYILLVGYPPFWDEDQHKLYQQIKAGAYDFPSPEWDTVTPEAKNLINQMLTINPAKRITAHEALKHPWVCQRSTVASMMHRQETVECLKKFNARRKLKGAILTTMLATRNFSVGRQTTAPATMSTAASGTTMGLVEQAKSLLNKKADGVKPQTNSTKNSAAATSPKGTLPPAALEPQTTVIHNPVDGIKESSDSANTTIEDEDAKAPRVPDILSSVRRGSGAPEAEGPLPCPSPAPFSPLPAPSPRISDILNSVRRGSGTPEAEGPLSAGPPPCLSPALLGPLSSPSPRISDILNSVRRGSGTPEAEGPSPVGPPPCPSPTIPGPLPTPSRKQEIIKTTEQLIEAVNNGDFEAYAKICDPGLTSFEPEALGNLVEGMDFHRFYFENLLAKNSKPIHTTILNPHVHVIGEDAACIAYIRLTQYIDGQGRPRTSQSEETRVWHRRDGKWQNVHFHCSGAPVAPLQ

Compound `O=C(Nc1cc(Cl)cc(Cl)c1)Nc1nc2ccc([N+](=O)[O-])cc2s1` has an IC50 (RCC4) of 2000 nM, an IC50 (786-0 [1]) of 2500 nM and an inhibition at 0.5 µM (A498 [2]) of over 50%. For the same compound, the inhibition (A498 [3]) was “Active”, the Activity (A498 [4]) was “inactive” and the inhibition [5] was “inactive”. For the same compound, the inhibition [6] was “inactive”, the inhibition [7] was “inactive” and the inhibition [8] was “inactive”. The inhibition [9] was “inactive”, the inhibition [10] was “inactive” and the inhibition [11] was “inactive”. The inhibition [12] was “inactive”, the inhibition [13] was “inactive” and the inhibition [14] was “inactive”. For the same compound, the inhibition [15] was “inactive”, the inhibition [16] was “inactive” and the inhibition [17] was “inactive”. For the same compound, the inhibition [18] was “inactive”, the inhibition [19] was “inactive” and the inhibition [20] was “inactive”. The inhibition [21] was “inactive”, the inhibition [22] was “inactive” and the inhibition [23] was “inactive”. For the same compound, the inhibition (TIME) was “Active”, the Activity (A498 [24]) was “Active” and the logD [25] was 2.86. For the same compound, the solubility [26] was 1.2 µM (≈ 0.46 µg/mL), the solubility [27] was 3 µM (≈ 1.15 µg/mL) and the fraction unbound [28] was 0.004. The fraction unbound [29] was 0.004, the half-life [30] was over 4.82 h and the half-life [31] was over 1 h. It also gave a microsomal CLint [32] of under 116 µL/min/mg, a half-life [33] of 0.643 h and a hepatocyte CLint [34] of 35.9 µL/min/1e6 cells. The Cmax [35] was 2800 nM, the Tmax [36] was 1 h and the half-life [37] was 1.8 h. It also gave a half-life [38] of 2.7 h, a bioavailability [39] of 33% and an inhibition in vivo at 100 mg/kg (786-0 [40]) of 87%. The Activity [41] was “Non-Toxic” and the Activity [42] was “Non-Toxic”.
